Measurements from ChEMBL document CHEMBL1134585, “New 3'-azido-3'-deoxythymidin-5'-yl O-(4-hydroxyalkyl or -alkenyl or -alkylepoxide) carbonate prodrugs: synthesis and anti-HIV evaluation” (J Med Chem, 2001).
pEC50: −log10 of the molar value.

Columns and labels:
[1] = half life time required for 50% hydrolysis of prodrugs to AZT at 37 degrees upon incubation in normal human serum(NHS); assay type: ADME
[2] = half life time required for 50% hydrolysis of prodrugs to AZT at 37 degrees upon incubation in Phosphate buffer saline(PBS), (0% of AZT was released); assay type: ADME
[3] = Partition coefficient (logP); assay type: physicochemical; conditions: octanol/water
MT4 [4] = assay: Conc. required to inhibit the cytopathicity on HIV-1 by 50% on MT-4 cells; assay type: functional, cell-based; conditions: Homo sapiens
[5] = half life time required for 50% hydrolysis of prodrugs to AZT at 37 degrees upon incubation in Phosphate buffer saline(PBS), (8% of AZT was released); assay type: ADME
Homo sapiens [6] = organism: Homo sapiens; assay: Conc. required to cause 50% death of uninfected PBMCs; assay type: functional
MT4 [7] = assay: Conc. required to cause 50% death of uninfected MT-4 cells; assay type: functional; conditions: Homo sapiens
Homo sapiens [8] = organism: Homo sapiens; assay: Conc. required to inhibit HIV-1 replication on PBMCs by 50%; assay type: functional, organism-based
MT4 [9] = assay: Conc. required to inhibit the cytopathicity of HIV-1 by 50% on MT-4 cells; assay type: functional, cell-based; conditions: Homo sapiens
[10] = half life time required for 50% hydrolysis of prodrugs to AZT at 37 degrees upon incubation in Phosphate buffer saline(PBS), (% of AZT was released); assay type: ADME
[11] = half life time required for 50% hydrolysis of prodrugs to AZT at 37 degrees upon incubation in Phosphate buffer saline(PBS), (8 % of AZT was released); assay type: ADME
[12] = half life time required for 50% hydrolysis of prodrugs to AZT at 37 degrees upon incubation in Phosphate buffer saline(PBS), (6% of AZT was released); assay type: ADME

Structure (SMILES)	T1/2 [1]	logP [3]	pEC50 (MT4 [4])	CC50 (Homo sapiens [6])	CC50 (MT4 [7])	pEC50 (Homo sapiens [8])	also measured
Cc1cn(C2CC(N=[N+]=[N-])C(COC(=O)OCCCCCO)O2)c(=O)[nH]c1=O (centres undefined)	16 min	–	–	–	–	–	–
CCCCOC(=O)OCC1OC(n2cc(C)c(=O)[nH]c2=O)CC1N=[N+]=[N-] (centres undefined)	9 min	–	–	–	–	–	T1/2 [2]: > 1440 min
Cc1cn(C2CC(N=[N+]=[N-])C(COC(=O)OCCO)O2)c(=O)[nH]c1=O (centres undefined)	< 1 min	–	–	–	–	–	–
Cc1cn(C2CC(N=[N+]=[N-])C(COC(=O)OCCCCCCO)O2)c(=O)[nH]c1=O (centres undefined)	7 min	–	–	–	–	–	–
Cc1cn(C2CC(N=[N+]=[N-])C(COC(=O)OCCCCCCCCO)O2)c(=O)[nH]c1=O (centres undefined)	2 min	–	–	–	–	–	–
Cc1cn([C@H]2C[C@H](N=[N+]=[N-])[C@@H](COC(=O)OC/C=C\CO)O2)c(=O)[nH]c1=O	45 min	0.59	7.74	> 20000 nM	179000 nM	7.28	T1/2 [5]: > 1440 min
Cc1cn([C@H]2C[C@H](N=[N+]=[N-])[C@@H](COC(=O)OC/C=C/CO)O2)c(=O)[nH]c1=O	26 min	-0.59	–	> 20000 nM	162000 nM	7.18	pEC50 (MT4 [9]): 8.10; T1/2 [10]: > 1440 min
Cc1cn([C@H]2C[C@H](N=[N+]=[N-])[C@@H](COC(=O)OC[C@H]3O[C@H]3CO)O2)c(=O)[nH]c1=O	80 min	0.47	7.89	> 20000 nM	159000 nM	6.99	T1/2 [11]: > 1440 min
Cc1cn(C2CC(N=[N+]=[N-])C(COC(=O)OCCCCO)O2)c(=O)[nH]c1=O (centres undefined)	30 min	–	8.22	> 20000 nM	262000 nM	7.51	T1/2 [12]: > 1440 min
Cc1cn(C2CC(N=[N+]=[N-])C(COC(=O)OCCCO)O2)c(=O)[nH]c1=O (centres undefined)	10 min	–	–	–	–	–	–
Cc1cn([C@H]2C[C@H](N=[N+]=[N-])[C@@H](CO)O2)c(=O)[nH]c1=O [ZIDOVUDINE]	–	0.88	7.92	15000 nM	42000 nM	7.25	–
